From paper PMC4184702 (Pharmacology Research & Perspectives, 2014)
“Also recorded” adds a separate entry of the source.

How the values were obtained:
[1] = target: T1, D4 dopamine receptor (Homo sapiens, UniProt P21917); experiment: PDSP primary binding, D4; conditions: n = 4, read-out: Inhibition (primary binding competition efficacy), D4
T1 construct: purchased NIMH Psychoactive Drug Screening Program (PDSP)
Experimental: (§1) For experimental details, please refer to the Psychoactive Drug Screening Program (PDSP) web site http://pdsp.med.unc.edu/.
(§2) ^a The default concentration for primary binding experiments is 10 µM (n = 4). ^b Negative inhibition represents a stimulation of binding. ^c BZPR: Benzodiazepine Receptors (rat brain site). ^d DOR: Delta Opioid Receptor; KOR: Kappa Opioid Receptor; MOR: Mu Opioid Receptor. ^e DAT: Dopamine Transporter; NET: Norepinephrine Transporter; SERT: Serotonin Transporter. ^f NMDA: N-methyl-D-aspartate receptor.

[2] = target: T2, α1A adrenergic receptor (Homo sapiens, UniProt P35348); experiment: PDSP primary binding, α1A; conditions: n = 4, read-out: Inhibition (primary binding competition efficacy), α1A
T2 construct: purchased NIMH Psychoactive Drug Screening Program (PDSP)
Experimental: as §1, §2

[3] = tested on: C57/BL6J mice; experiment: Preliminary acute maximum tolerated dose study; type: in vivo, mouse
[4] = target: T3, 5-HT4 (Homo sapiens, UniProt Q13639); experiment: PDSP primary binding, 5-HT4; conditions: n = 4, read-out: Inhibition (primary binding competition efficacy), 5-HT4
T3 construct: purchased NIMH Psychoactive Drug Screening Program (PDSP)
Experimental: as §1, §2

[5] = Metabolic stability, liver microsomes, human; type: in vitro ADME; conditions: 1.0E-06 M, 1 h
[6] = target: T4, human α7-nAChR (Homo sapiens, UniProt P36544); experiment: Two-electrode voltage-clamp recording in Xenopus oocytes, α7; type: cell-based
T4 construct: expressed in transfected cells; host or cells: Xenopus oocytes (cRNA injection)
Experimental: Xenopus oocytes were injected with cRNAs encoding human nicotinic receptor subunits (α4:β2 at 1:1 ratio or α7). Three to five days after injection, oocytes were individually placed in a custom made small volume chamber and continuously perfused with oocyte Ringer's solution (OR2; 92.5 mmol/L NaCl, 2.5 mmol/L KCl, 1 mmol/L CaCl2, 1 mmol/L MgCl2, and 5 mmol/L HEPES at pH 7.5). Drugs were delivered to the oocytes through a ValveLink8.2 computer-controlled perfusion system (Automate Scientific, Inc, Berkeley, CA). The chamber was grounded through an agar KCl bridge. The oocytes were voltage-clamped at −70 mV to measure agonist-induced currents using a GeneClamp 500B amplifier (Axon Instruments, Foster City, CA). The current signal was filtered at 20 Hz with the built-in four pole low-pass Bessel filter and digitized at 100 Hz.

[7] = Metabolic stability, liver microsomes, mouse; type: in vitro ADME; conditions: CD-1, 1.0E-06 M, 1 h
[8] = tested on: CYP3A; experiment: CYP3A inhibition, HLM, midazolam substrate; type: in vitro ADME, human; conditions: 1.0E-05 M
Description: (§3) Supplement prp20002-e00026-sd1.doc, table 3: Table 3.

[9] = target: β2-containing nAChRs (α2β2, α3β2, α4β2, and α4β2*); parameters: method as in Yu et al. [2012]; conditions: ref Yu et al. [2012], read-out: Ki values range at β2-containing nAChRs; cited from earlier work
[10] = target: T5, M5 muscarinic receptor (Homo sapiens, UniProt P08912); experiment: PDSP primary binding, M5; conditions: n = 4, read-out: Inhibition (primary binding competition efficacy), M5
T5 construct: purchased NIMH Psychoactive Drug Screening Program (PDSP)
Experimental: as §1, §2

[11] = target: T6, D5 dopamine receptor (Homo sapiens, UniProt P21918); experiment: PDSP primary binding, D5; conditions: n = 4, read-out: Inhibition (primary binding competition efficacy), D5
T6 construct: purchased NIMH Psychoactive Drug Screening Program (PDSP)
Experimental: as §1, §2

[12] = target: T7, D2 dopamine receptor (Homo sapiens, UniProt P14416); experiment: PDSP primary binding, D2; conditions: n = 4, read-out: Inhibition (primary binding competition efficacy), D2
T7 construct: purchased NIMH Psychoactive Drug Screening Program (PDSP)
Experimental: as §1, §2

[13] = target: T8, CYP2D6 (Homo sapiens, UniProt P10635); experiment: CYP2D6 inhibition, HLM, dextromethorphan substrate; type: in vitro ADME; conditions: 1.0E-05 M
T8 construct: from tissue; host or cells: human liver microsomes (HLM)
Description: as §3

[14] = target: T9, H1 histamine receptor (Homo sapiens, UniProt P35367); experiment: PDSP primary binding, H1; conditions: n = 4, read-out: Inhibition (primary binding competition efficacy), H1
T9 construct: purchased NIMH Psychoactive Drug Screening Program (PDSP)
Experimental: as §1, §2

[15] = target: T10, Oxytocin (Homo sapiens, UniProt P30559); experiment: PDSP primary binding, Oxytocin; conditions: n = 4, read-out: Inhibition (primary binding competition efficacy), Oxytocin
T10 construct: purchased NIMH Psychoactive Drug Screening Program (PDSP)
Experimental: as §1, §2

[16] = target: T11, PBR (Rattus norvegicus, UniProt P16257); experiment: PDSP primary binding, PBR; conditions: n = 4, read-out: Inhibition (primary binding competition efficacy), PBR
T11 construct: purchased NIMH Psychoactive Drug Screening Program (PDSP)
Experimental: as §1, §2

[17] = tested on: Balb/CJ mice; experiment: Acute toxicity / mortality in Balb/C mice; conditions: 300 mg/kg, wild-type Balb/CJ mice
[18] = target: T12, 5-HT1B (Homo sapiens, UniProt P28222); experiment: PDSP primary binding, 5-HT1B; conditions: n = 4, negative inhibition = stimulation of binding, read-out: Inhibition (primary binding competition efficacy), 5-HT1B
T12 construct: purchased NIMH Psychoactive Drug Screening Program (PDSP)
Experimental: as §1, §2

[19] = tested on: Male Balb/CJ mice; experiment: Forced swim test; type: in vivo, mouse
Description: Male Balb/CJ mice (Jackson Laboratories, Bar Harbor, ME) were used in the forced swim test (FST). Upon receipt, mice were assigned unique identification numbers (tail marked) and were group-housed in OptiMICE ventilated cages. Mice were acclimated to the colony room for at least 1 week prior to drug administration. Mice were 8–10 weeks of age at time of FST.
Procedures have been previously described (Porsolt et al. [1977]). Naïve mice were individually placed into clear glass cylinders (15 cm tall × 10 cm wide, 1 L beakers) containing 23 ± 1°C water 12 cm deep (∼800 mL). […] Thirty minutes following the administration, mice were placed in the water, and the time the animal spent immobile was recorded over a 6-min trial. Immobility was defined as the postural position of floating in the water. Only one session is required for the forced swim test in mice.

[20] = target: T13, KOR: Kappa Opioid Receptor (Homo sapiens, UniProt P41145); experiment: PDSP primary binding, KOR; conditions: n = 4, read-out: Inhibition (primary binding competition efficacy), KOR
T13 construct: purchased NIMH Psychoactive Drug Screening Program (PDSP)
Experimental: as §1, §2

[21] = tested on: σ 2 sigma receptor; experiment: PDSP primary binding, σ 2; conditions: 10 µM, n = 4
Experimental: as §1, §2

[22] = tested on: σ 1 sigma receptor; experiment: PDSP primary binding, σ 1; conditions: 10 µM, n = 4
Experimental: as §1, §2

[23] = target: T14, NET: Norepinephrine Transporter (Homo sapiens, UniProt P23975); experiment: PDSP primary binding, NET; conditions: n = 4, read-out: Inhibition (primary binding competition efficacy), NET
T14 construct: purchased NIMH Psychoactive Drug Screening Program (PDSP)
Experimental: as §1, §2

T4 sequence (P36544 23-502): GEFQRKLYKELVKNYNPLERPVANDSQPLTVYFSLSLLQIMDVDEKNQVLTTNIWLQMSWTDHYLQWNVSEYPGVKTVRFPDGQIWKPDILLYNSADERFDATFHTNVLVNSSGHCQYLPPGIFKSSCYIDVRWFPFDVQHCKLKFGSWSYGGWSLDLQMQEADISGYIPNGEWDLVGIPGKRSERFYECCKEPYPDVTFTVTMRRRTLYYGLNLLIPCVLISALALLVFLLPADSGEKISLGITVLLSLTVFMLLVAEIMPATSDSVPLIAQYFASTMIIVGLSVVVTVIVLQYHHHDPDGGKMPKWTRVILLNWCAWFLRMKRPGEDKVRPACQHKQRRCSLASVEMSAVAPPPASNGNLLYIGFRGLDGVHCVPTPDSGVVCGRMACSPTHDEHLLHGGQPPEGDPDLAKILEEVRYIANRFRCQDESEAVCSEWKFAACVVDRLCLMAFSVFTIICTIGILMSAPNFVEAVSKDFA
T2 sequence (P35348 whole entry): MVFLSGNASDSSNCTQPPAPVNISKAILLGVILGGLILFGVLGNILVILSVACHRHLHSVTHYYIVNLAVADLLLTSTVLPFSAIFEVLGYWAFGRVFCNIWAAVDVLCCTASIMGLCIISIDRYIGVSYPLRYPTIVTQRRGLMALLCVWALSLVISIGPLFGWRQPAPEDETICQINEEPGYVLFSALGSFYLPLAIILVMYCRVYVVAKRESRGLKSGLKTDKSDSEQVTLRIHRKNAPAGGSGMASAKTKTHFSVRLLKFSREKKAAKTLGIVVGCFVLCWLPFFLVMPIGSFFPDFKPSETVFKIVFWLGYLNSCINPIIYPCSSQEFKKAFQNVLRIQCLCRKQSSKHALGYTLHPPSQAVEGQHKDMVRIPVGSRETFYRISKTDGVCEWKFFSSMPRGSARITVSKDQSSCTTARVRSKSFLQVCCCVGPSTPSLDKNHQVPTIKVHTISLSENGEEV
T1 sequence (P21917 whole entry): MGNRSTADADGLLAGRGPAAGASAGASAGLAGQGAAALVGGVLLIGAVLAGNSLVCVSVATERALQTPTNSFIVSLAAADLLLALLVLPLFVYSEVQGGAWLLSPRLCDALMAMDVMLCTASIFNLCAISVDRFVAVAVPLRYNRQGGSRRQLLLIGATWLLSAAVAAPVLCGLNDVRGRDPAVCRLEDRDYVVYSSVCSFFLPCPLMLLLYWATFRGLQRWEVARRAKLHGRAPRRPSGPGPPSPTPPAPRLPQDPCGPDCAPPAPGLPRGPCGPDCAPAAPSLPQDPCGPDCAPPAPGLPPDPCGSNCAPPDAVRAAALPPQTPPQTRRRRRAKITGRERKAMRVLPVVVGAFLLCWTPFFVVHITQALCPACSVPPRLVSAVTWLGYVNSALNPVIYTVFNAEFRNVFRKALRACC
T5 sequence (P08912 whole entry): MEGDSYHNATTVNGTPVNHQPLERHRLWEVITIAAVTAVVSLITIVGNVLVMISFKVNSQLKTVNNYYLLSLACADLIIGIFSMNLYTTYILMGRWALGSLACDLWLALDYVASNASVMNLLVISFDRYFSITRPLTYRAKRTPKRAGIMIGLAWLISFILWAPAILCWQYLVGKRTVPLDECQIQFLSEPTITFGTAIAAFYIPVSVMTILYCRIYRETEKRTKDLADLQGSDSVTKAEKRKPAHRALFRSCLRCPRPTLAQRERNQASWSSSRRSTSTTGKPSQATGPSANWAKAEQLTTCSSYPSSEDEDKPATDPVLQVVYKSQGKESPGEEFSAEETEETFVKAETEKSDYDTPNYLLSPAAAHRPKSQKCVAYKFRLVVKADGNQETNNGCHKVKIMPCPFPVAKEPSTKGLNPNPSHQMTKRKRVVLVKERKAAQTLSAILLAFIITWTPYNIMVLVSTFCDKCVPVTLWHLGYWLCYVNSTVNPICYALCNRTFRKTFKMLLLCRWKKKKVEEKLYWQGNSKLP
T9 sequence (P35367 whole entry): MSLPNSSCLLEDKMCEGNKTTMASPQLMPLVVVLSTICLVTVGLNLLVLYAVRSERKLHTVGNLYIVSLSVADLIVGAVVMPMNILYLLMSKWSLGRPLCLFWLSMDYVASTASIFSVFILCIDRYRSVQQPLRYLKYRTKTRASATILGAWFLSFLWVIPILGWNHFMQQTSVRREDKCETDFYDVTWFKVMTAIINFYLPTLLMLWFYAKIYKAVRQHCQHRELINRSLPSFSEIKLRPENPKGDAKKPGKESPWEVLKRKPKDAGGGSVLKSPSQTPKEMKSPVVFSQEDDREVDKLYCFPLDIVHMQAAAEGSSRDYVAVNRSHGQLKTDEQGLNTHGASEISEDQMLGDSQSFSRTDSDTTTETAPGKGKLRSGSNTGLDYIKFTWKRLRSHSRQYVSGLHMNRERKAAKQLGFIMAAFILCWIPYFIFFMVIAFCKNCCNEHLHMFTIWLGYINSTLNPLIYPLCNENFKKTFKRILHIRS
T3 sequence (Q13639 whole entry): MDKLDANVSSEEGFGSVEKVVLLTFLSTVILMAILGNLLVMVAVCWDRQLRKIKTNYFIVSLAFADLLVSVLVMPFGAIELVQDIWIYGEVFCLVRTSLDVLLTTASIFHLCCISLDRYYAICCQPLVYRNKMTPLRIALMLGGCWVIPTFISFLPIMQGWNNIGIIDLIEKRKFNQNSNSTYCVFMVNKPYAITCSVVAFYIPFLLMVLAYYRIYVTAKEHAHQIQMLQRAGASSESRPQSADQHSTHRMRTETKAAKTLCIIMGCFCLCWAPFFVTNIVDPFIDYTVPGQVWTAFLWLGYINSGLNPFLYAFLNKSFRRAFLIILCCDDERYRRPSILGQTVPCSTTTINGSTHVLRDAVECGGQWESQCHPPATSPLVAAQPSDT
T7 sequence (P14416 whole entry): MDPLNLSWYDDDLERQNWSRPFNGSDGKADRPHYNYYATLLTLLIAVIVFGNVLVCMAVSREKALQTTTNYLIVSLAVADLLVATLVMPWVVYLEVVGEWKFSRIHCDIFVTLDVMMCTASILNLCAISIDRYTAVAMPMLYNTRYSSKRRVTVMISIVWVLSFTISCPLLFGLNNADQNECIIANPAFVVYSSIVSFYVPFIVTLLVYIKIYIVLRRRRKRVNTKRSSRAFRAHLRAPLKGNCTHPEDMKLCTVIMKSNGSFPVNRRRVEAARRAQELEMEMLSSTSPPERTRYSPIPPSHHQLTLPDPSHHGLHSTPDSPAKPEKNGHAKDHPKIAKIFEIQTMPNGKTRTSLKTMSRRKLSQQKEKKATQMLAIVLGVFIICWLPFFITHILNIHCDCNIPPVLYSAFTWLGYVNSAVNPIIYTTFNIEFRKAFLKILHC
T11 sequence (P16257 whole entry): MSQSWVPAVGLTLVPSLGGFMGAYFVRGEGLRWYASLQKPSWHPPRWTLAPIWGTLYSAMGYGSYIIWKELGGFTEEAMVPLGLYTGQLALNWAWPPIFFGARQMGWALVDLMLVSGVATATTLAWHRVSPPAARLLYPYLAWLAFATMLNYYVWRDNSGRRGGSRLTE
T14 sequence (P23975 whole entry): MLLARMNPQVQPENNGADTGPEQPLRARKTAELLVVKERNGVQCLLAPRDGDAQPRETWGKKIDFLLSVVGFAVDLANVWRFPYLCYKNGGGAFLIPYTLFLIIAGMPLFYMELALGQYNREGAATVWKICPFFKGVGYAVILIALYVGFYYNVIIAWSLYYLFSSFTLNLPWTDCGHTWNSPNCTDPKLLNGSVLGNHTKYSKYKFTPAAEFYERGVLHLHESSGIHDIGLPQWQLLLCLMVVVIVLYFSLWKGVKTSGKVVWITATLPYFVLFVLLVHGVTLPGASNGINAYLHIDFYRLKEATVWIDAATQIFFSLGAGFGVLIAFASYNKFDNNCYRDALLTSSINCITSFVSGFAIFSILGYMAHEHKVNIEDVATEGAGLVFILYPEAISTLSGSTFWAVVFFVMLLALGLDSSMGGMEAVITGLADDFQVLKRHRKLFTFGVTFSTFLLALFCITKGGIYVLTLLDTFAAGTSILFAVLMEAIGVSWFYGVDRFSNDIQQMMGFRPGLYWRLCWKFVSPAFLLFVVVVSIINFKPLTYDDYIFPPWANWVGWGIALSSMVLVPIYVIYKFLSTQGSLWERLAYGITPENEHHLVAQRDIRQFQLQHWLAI
T12 sequence (P28222 whole entry): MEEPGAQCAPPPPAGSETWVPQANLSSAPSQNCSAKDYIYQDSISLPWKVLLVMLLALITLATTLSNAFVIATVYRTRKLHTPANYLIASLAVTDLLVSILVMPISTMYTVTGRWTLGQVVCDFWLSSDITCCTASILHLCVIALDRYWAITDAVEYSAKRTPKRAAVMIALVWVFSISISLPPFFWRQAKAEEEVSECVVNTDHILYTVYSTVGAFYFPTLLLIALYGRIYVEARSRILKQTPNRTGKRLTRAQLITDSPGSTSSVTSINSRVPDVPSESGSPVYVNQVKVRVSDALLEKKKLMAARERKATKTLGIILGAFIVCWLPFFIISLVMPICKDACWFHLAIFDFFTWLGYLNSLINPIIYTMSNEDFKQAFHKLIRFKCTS
T8 sequence (P10635 whole entry): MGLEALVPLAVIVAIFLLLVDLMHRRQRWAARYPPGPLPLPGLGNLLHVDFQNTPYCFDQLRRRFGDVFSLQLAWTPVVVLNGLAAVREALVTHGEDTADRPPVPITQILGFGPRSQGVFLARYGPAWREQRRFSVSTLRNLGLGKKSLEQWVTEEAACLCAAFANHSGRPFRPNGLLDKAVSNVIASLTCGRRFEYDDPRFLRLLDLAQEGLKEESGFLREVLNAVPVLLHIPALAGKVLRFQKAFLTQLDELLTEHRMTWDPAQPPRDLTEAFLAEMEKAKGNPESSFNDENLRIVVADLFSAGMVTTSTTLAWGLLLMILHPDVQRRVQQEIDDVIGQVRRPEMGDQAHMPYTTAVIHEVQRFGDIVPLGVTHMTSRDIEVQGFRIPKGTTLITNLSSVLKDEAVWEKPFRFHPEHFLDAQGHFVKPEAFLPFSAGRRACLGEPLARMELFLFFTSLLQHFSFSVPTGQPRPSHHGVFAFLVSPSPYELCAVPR

OCCc1cc(-c2cncc(OC[C@@H]3CCN3)c2)on1 [LF-3-88, 2-[5-[5-(2(S)-azetidinylmethoxyl)-3-pyridyl]-3-isoxazolyl]ethanol]
inhibition at 10 µM [1]: -2.5%
inhibition at 10 µM [2]: -5.5%
dose above which temperature and active behaviors temporarily decreased ([3]; acute): above 100 mg/kg
serious toxic side effects or mortality ([3]; up to 300 mg/kg): no serious toxic side effects or mortality
inhibition at 10 µM [4]: 3.7%
Remaining (metabolic stability) [5]: 89%
agonist activity at α7-nAChRs in oocytes ([6]; 20 μmol/L): lack of agonist activity
effect at α7-nAChRs in oocytes ([6]; concentrations as high as 20 μmol/L): No effect
antagonist activity at α7-nAChR in oocytes ([6]; responses to 100 μmol/L ACh): weak if any antagonist activity
Remaining (metabolic stability) [7]: 81%
CYP3A Inhibition [8]: 1%
Ki [9]: 0.6 to 15.4 nM
inhibition at 10 µM [10]: -9.4%
inhibition at 10 µM [11]: 5.8%
inhibition at 10 µM [12]: 17.2%
CYP2D6 Inhibition [13]: -0.4%
inhibition at 10 µM [14]: -6%
inhibition at 10 µM [15]: 6.4%
inhibition at 10 µM [16]: -1.5%
mortality [17]: no mortality
inhibition at 10 µM [18]: -7.9%
immobility in forced swim test ([19]; 1, 3, and 10 mg/kg, p.o.): decreased immobility; also recorded: reduce the immobility dose-dependently
immobility in forced swim test ([19]; 1 and 3 mg/kg, i.p., 30 min pretreatment, 6-min trial, vs water): decreased immobility; also recorded: dose-dependently reduced immobility
minimum effective dose in forced swim test ([19]; i.p.): 1 mg/kg
inhibition at 10 µM [20]: 3%
Inhibition (primary binding competition efficacy), σ 2 [21]: 11.5%
Inhibition (primary binding competition efficacy), σ 1 [22]: 15.8%
inhibition at 10 µM [23]: 0.4%
